The record followed here is patent publication US3932650A, “Trans-octahydropyridoindolobenzazepines as central nervous system depressants” (E. I. Du Pont de Nemours & Company, priority 1973, dated 1976).

What is called ED50 is the midpoint of the dose-response relation.

For assay [1], the system named is phenyl-p-benzoquinone-induced writhing. Put plainly: Phenylquinone Writhing (P.Q.W.). It counts as in vivo, mouse. The following applies: 0.5 h; mouse, po; phenyl-p-benzoquinone 2.5 mg/kg i.p. 30 minutes after compound; read-out: P.Q.W. ED50.
The subject of assay [2] is catalepsy. Description: Catalepsy, comparison with chlorpromazine. Type of assay: in vivo. The note with it: read-out: Catalepsy (*ED50?).
For assay [3], the system named is catalepsy. Description: Catalepsy, rat. It counts as in vivo. The following applies: rat, po; read-out: Catalepsy MED. The source says:
(§1) The ability of an animal to remain in an abnormal position is used as another indication of central nervous system depressant activity. A test animal is removed from its observation cage and positioned so that its hind legs are on the table top and its front legs rest on the side of the observation cage. If an animal maintains this position for at least 10 seconds, it is considered to be showing cataleptic behavior.

In assay [4] the test system is eyelid closure (ptosis). Put plainly: Ptosis, comparison with chlorpromazine. It counts as in vivo. The following applies: read-out: Ptosis (*ED50?).
In assay [5] the test system is locomotor activity. Put plainly: Decreased Locomotor Activity (L.M.A.), mouse. It counts as in vivo. The note with it: mouse, po; minimal effective dose; read-out: L.M.A. MED. On the procedure: (§2) Decreased Locomotor Activity (L.M.A.)
(§3) This reaction sign is measured subjectively by observing how an animal behaves when it is removed from an observation cage and placed on a table top. […] The degree of stimulation by the observer needed to produce active locomotion is rated on an arbitrary scale. This ranges from a score of -1 where only a slight touch of the animal's body is required to a -4 where the animal is unresponsive or minimally responsive to the application of a pain stimulus (pressure at the base of the tail). The minimal effective dose (MED) is the lowest oral dose producting an obvious decrease of locomotor activity (with a score of at least -1). Groups of 3 mice are given decreasing oral doses at 0.5 log intervals (300, 100, 30. . .etc.) until no behavioral effects are evident. Decrease of locomotor activity is indicative of general central nervous system depressant activity.

For assay [6], the system named is locomotor activity. Put plainly: Decreased Locomotor Activity (L.M.A.), rat. Type of assay: in vivo. The following applies: po; minimal effective dose; read-out: L.M.A. MED. The protocol: as §2, §3
Assay [7] deals with eyelid closure (ptosis). Put plainly: Ptosis, rat. The note with it: rat, po; passive ptosis; read-out: Ptosis MED. Type of assay: in vivo. The source says:
Degree of eyelid closure is used as a measure of central nervous system depression. An animal is removed from its observation cage and allowed to remain outside the cage for 30 seconds. At the end of this time a rating of degree of eyelid closure is made on an arbitrary scale.

Assay [8] has as its system catalepsy. Put plainly: Catalepsy, mouse. It counts as in vivo. The following applies: mouse, po; read-out: Catalepsy MED.
From the text: as §1

Assay [9] has as its system locomotor activity. Put plainly: LMA, comparison with chlorpromazine. Type of assay: in vivo. The following applies: read-out: LMA (*ED50?).
Assay [10] deals with eyelid closure (ptosis). Put plainly: Ptosis, mouse. It counts as in vivo. The note with it: mouse, po; passive ptosis; read-out: Ptosis MED.

Molecules are shown by their SMILES. Where two headings read alike, the source gives them in different places.

Take `CC(C)CN1CC[C@@H]2[C@@H](C1)c1cccc3c1N2c1ccccc1CC3` (relative stereo) [Example 5, trans-1,2,3,4,4a,8,9,14a-Octahydro-3-isobutylpyrido[4',3':2,3]indolo[1,7-ab][1]benzazepine]: the median effective dose (ED50) in assay [1] was 1.75 mg/kg; with catalepsy [2] (species not given), 6 mg/kg; in the assay on eyelid closure (ptosis) [4] (species not given) it was 5 mg/kg; in the assay with locomotor activity [9] (species not given) it was 4 mg/kg. In addition, the minimal effective dose in the assay on catalepsy [3] amounted to 6 mg/kg; in the assay on locomotor activity [5], 2 mg/kg; with locomotor activity [6], 4 mg/kg; in the assay with eyelid closure (ptosis) [7], 5 mg/kg; in the assay with catalepsy [8], 2 mg/kg; with eyelid closure (ptosis) [10] it was 8 mg/kg.
With `CN(C)CCCN1c2ccccc2Sc2ccc(Cl)cc21` [Chlorpromazine], the ED50 with catalepsy [2] was found to be 6 mg/kg; with eyelid closure (ptosis) [4] it was 6 mg/kg; in the assay with locomotor activity [9] it was 5 mg/kg.
